Experimental data from patent US9540646B2, “Cellular targets for HIV infection” (priority 2012, dated 2017).
Entries after “also recorded” stand apart in the source; their conditions may differ.

Assays:
[1] = system: HIV; assay: HIV replication in macrophage cultures, strain not named; type: cell-based; conditions: macrophage cultures; BBG concentration and strain not printed at the place
Method: (§1) HIV replication: After 6 days in culture, macrophages in 48-well plates at a density of 10^5 cells per well were inoculated with 2-20 ng/ml HIVADA, 2 ng/ml HIVYU-2, or 0.2 ng/ml HIVBaL for 24 hours in the presence or absence of purinergic receptor inhibitors. 5 wells were inoculated per condition. After 24 hours, cells were washed with PBS and then cultured with media. Supernatants were collected and medium was changed every 24 hours until 7 days post inoculation (d.p.i.). When the inhibitors oATP, A-740003, MRS 2179, NF 279, BBG, or suramin, were used, they were added when the medium was changed every 24 hours. Viral replication was analyzed by HIV p24 ELISA (Advanced Bioscience Laboratories, Kensington, Md.) according to the manufacturer's instructions

[2] = cited from earlier work
[3] = system: Macrophages; assay: Cell viability of macrophages, live/dead assay; type: cell-based; conditions: 100 μM, 24 hours
Excerpt: Cells were imaged using a Zeiss AxioObserver.D1 with an LD Plan-Neofluar 20×/0.4 air objective lens. Images were collected at room temperature through a Zeiss AxioCam MRm camera using Axiovision software.

[4] = system: HIVBaL; assay: HIV replication in primary human macrophages, HIV p24 ELISA; type: cell-based, Human immunodeficiency virus-1 (HIV); conditions: 100 μM oATP; according to d.p.i.; N=3
Excerpt: (§2) Monocyte isolation and macrophage culture: Human monocytes were isolated from leukopaks obtained from the New York Blood Center. Peripheral blood mononuclear cells (PBMCs) were isolated by differential centrifugation using a Ficoll gradient (GE Healthcare, Piscataway, N.J.) and CD14 positive cells were isolated from PBMCs using CD14 monoclonal antibodies that were then bound by magnetic nanoparticles and separated using a magnetic field (Stem Cell Technologies, Vancouver, BC, Canada). Isolated CD14 positive cells were cultured adherently for 6 days in the presence of 10 ng/ml macrophage-colony stimulating factor (PeproTech, Rocky Hill, N.J.) in RPMI 1640 with 10% FBS, 5% human AB serum, 1% P/S, and 10 mM HEPES to differentiate the cells into macrophages.
as §1

[5] = system: HIVADA; assay: as above; type: cell-based, Human immunodeficiency virus-1 (HIV)
Excerpt: as §2, §1

[6] = system: HIVYU-2; assay: as above; type: cell-based, Human immunodeficiency virus-1 (HIV); conditions: 100 μM oATP; every d.p.i.; N=3
Excerpt: as §2, §1

[7] = system: HIVADA; assay: Immunofluorescence, percentage of HIV p24 positive macrophages; type: cell-based, Human immunodeficiency virus-1 (HIV); conditions: 100 μM oATP, 7 d.p.i.
Method: Immunofluorescence: After 6 days in culture, macrophages cultured in 35 mm MatTek dishes at a density of 10^6 cells per dish were inoculated with 20 ng/ml HIVADA for 24 hours in the presence or absence of oATP. Two MatTek dishes were inoculated per condition. After 24 hours, cells were washed with PBS and cultured with media. Fresh oATP was added and the medium was changed every 24 hours until 7 d.p.i. Cells were then fixed using cold 70% ethanol for 20 minutes. Cells were washed with PBS and blocked using 0.9% fish gelatin, 50 μM EDTA. 1% horse serum, and 1% globulin-free albumin. The following primary antibodies were used: mouse monoclonal HIV p24 antibody from Abeam at a 1:50 dilution (Cambridge, Mass.) or mouse myeloma IgG1 (Sigma) as a negative control. Secondary antibody staining was with anti-mouse IgG F(ab)′2 fragment conjugated to FITC (Sigma). Actin was stained using Texas Red-X conjugated to phalloidin (Invitrogen, Eugene, Oreg.). ProLong Gold antifade reagent containing DAPI was added to all cells to stain for nuclei. Cells were imaged using a Zeiss AxioObserver.D1 with an LD Plan-Neofluar 20×/0.4 air objective lens. […] Images for 15 fields per condition were analyzed and percentage of p24 positive cells determined by counting number of nuclei in cells with green cytoplasmic staining.

[8] = system: β-lactamase containing HIVBaL; assay: HIV Entry Assay (β-lactamase / CCF2-AM) in primary human macrophages; type: cell-based, Human immunodeficiency virus-1 (HIV); conditions: 100 μM; 4 hours; MOI 0.001-0.01; oATP N=5, others N=3
Method: HIV Entry Assay: Primary human macrophages were cultured in black 96-well plates with a clear bottom (Corning Inc., Corning, N.Y.) at a density of 43,000 cells per well. After 7-8 days in culture, cells were inoculated with β-lactamase containing HIVBaL at a multiplicity of infection (MOI) of 0.01, 0.005, or 0.001 in the presence or absence of the purinergic receptor inhibitors oATP, NF 279, A-740003, or MRS 2179 for 4 hours. Beta-lactamase containing HIVBaL was generated as described previously (27). Briefly, HEK-293T cells were transfected using calcium phosphate with two plasmids, one containing the HIVBaL genome, pWT/BaL (NIH repository), the other containing β-lactamase fused to REV vpr, pMM310 (NIH repository). Cells were transfected for 16 hours and then supernatant was collected 24 and 48 hours following transfection. […] Viral stocks were generated by sucrose gradient purification of the transfection supernatants.
Alter viral inoculation of primary human macrophages, cells were washed with phenol red-free DMEM (Gibco) then loaded with CCF2-AM for 6 hours at room temperature using the GeneBLAzer In Vivo Detection Kit (Invitrogen, Carlsbad, Calif.). CCF2-AM fluoresces green due to an internal fluorescence resonance energy transfer, but when cleaved by β-lactamase, this interaction is lost and the molecule fluoresces blue. Cells were imaged using an Olympus IX70 with a Plan 10×/0.25 air objective lens. Images were collected at room temperature through an Olympus E-620LS camera attached to the microscope through an OM adapter MF-1. Images were collected directly onto a memory card and there was no image processing following image collection. Images were collected for 8 fields in 4 separate wells per condition and percentage of cells positive for viral entry was determined by counting the number of blue cells (cells that virus had entered) as compared to the total number of blue and green cells.

[9] = system: purinergic receptors; conditions: in vivo mouse model; reference 99; cited from earlier work
[10] = molecular target: T1, Panx1 hemichannels (Homo sapiens, UniProt Q96RD7); assay: HIV-induced ethidium (Etd) dye uptake, time lapse fluorescence imaging, in PBMCs and CD4+ T lymphocytes; type: cell-based; design: endogenous in cells; host or cells: primary human PBMCs and purified CD4+ T lymphocytes from leukopacks (New York Blood Center); conditions: PBMCs exposed to HIVADA; CD4+ T lymphocytes exposed to HIVADA, HIVBal or HIVLAI; 5 min and 72 h; Prob 500 μM, 10Panx1 200 μM, scrPanx1 200 μM, La3+ 200 μM, Cx43E2 1:500, siRNA 10 nM
Method: Isolation of human PBMCs and CD4+ T lymphocytes. Anticoagulated blood was obtained from leukopacks obtained from the New York Blood Center as described before (16). PBMCs were isolated by under-layering with Ficoll-Paque (Amersham Bioscience, Uppsala, Sweden) according to the procedure described by the manufacturer. Purified PBMC used in these studies were ˜10% monocytes and ˜90% lymphocytes and other hematopoietic cells, as determined by incubation with premixed human CD45 and CD14 monoclonal antibodies conjugated to FITC and PE, respectively (1:50, Caltag Laboratories, Burlingame, Calif.), followed by fluorescence-activated cell sorter analysis (FACS) as we previously described (17). To obtain a pure population of CD4+ T lymphocytes, monocytes were removed from PBMCs by using CD14 coupled magnetic beads and subsequently CD4+ T lymphocytes were isolated with CD4 coupled magnetic beads (Stem Cell Technologies, Vancouver, BC, Canada).
(§3) HIV-infection and quantification of replication. Cell-free viral inocula were obtained from the National Institutes of Health AIDS Research and Reference Reagent Program. Three isolates were used: HIVADA, and HIVBal, two R5 isolates and HIVLAI, an X4 isolate, PBMCs and purified CD4+ T lymphocytes were isolated and activated with phytohemagglutinin (PHA; 5 μg/ml) plus interleukin (IL-2; 5%) in RPMI 1640 for 48 h in polypropylene tubes at a density of 2×10^6 […] PBMCs and CD4+ T lymphocytes were then infected by incubation for 24 h with viral stocks of HIVADA (20 ng p24/ml/1×10^6 cells), HIVLAI (20 ng p24/ml/1×10^6 cells) or HIVBal (0.001 MOI), washed thoroughly, resuspended in fresh medium, and maintained in polypropylene tubes. Uninfected control cells were activated with PHA plus IL-2 for 48 h, washed, and maintained in polypropylene tubes in fresh media without any virus. To determine the levels of HIV infection, the amount of HIV-p24 released into the medium was determined by ELISA (PerkinElmer, Boston, Mass.)
(§4) Dye uptake and time lapse fluorescence imaging. To characterize the functional state of Panx1 hemichannels, dye uptake experiments using ethidium (Etd) bromide were performed as previously described (18, 19). Cells were washed twice in Hank's balanced salt solution and then exposed to Locke's solution (containing: 154 mM NaCl, 5.4 mM KCl, 2.3 mM CaCl2, 5 mM HEPES and pH 7.4) with 5 μM Etd and time lapse microscopy was performed. Phase-contrast and fluorescence microscopy with time-lapse imaging were used to record cell appearance and fluorescence intensity changes in each condition. Fluorescence was recorded every 30 s. The NIH ImageJ program was used for off-line image analysis and fluorescence quantification. For data representation and calculation of Etd uptake slopes, the average of two independent background fluorescence intensity measurements (FB, expressed as arbitrary units, AU) was subtracted from fluorescence intensity′ in each cell (F1). Results of this calculation (F1-FB), for at least 20 cells, were averaged and plotted against time (expressed in minutes). Slopes were calculated using Microsoft Excel software and expressed as AU/min. Microscope and camera settings remained the same in all experiments. Dead cells were clearly identified during the time lapse microscopy due to their non specific Etd uptake (not inhibited by hemichannel blockers) and were not quantified.

[11] = molecular target: T1, Panx1 hemichannels; assay: Etd uptake in CD4+ T lymphocytes induced by chemokines or gp120; type: cell-based; design: endogenous in cells; host or cells: primary human PBMCs and purified CD4+ T lymphocytes from leukopacks (New York Blood Center); conditions: gp120 1 μg/ml, 5 min
Method: as §4

[12] = system: HIVADA; assay: HIV replication in CD4+ T lymphocytes, HIV-p24 ELISA; type: cell-based, Human immunodeficiency virus-1 (HIV); conditions: supernatants each day for 7 days, 10Panx1 200 μM, scrPanx1 200 μM, siRNA 10 nM
Method: as §3

[13] = molecular target: T1, Panx1 hemichannels; assay: HIV-induced Etd uptake in CD4+ T lymphocytes by flow cytometry (FACS); type: cell-based; design: endogenous in cells; host or cells: primary human PBMCs and purified CD4+ T lymphocytes from leukopacks (New York Blood Center); conditions: HIVADA, 5 min and 72 h
Method: Flow cytometry. To measure Etd uptake in CD4+ T cell populations FACS analysis was performed of cells under control conditions or after HIV exposure at several time points. Etd uptake experiments were performed in CD4+ lymphocytes (3-5×10^5), and after the respective time of Etd uptake, cells were fixed with 2% paraformaldehyde for 30 min at room temperature, incubated with 1% BSA in PBS for 30 min and stained with CD4 antibody for 30 min at 4° C. For analyses of Etd positive populations, 10,000 events were acquired on a BD FACS Canto II and analyzed using FlowJo (Ashland, Oreg.) software as we previously described (17, 20).

T1 sequence (Q96RD7 whole entry): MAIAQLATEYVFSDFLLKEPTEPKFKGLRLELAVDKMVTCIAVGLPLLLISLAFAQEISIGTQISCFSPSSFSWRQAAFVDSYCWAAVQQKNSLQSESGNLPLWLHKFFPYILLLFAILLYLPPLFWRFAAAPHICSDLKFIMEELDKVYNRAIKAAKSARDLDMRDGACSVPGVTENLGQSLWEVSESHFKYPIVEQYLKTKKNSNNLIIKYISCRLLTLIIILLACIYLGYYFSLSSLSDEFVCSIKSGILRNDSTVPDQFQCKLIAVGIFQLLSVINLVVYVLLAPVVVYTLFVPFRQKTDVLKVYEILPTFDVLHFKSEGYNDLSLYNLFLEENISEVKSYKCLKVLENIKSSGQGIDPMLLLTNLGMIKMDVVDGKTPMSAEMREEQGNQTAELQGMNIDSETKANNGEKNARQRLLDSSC

Compound: CCOc1ccc(Nc2ccc(/C(=C3C=C/C(=[N+](/CC)Cc4cccc(S(=O)(=O)[O-])c4)C=C/3C)c3ccc(N(CC)Cc4cccc(S(=O)(=O)[O-])c4)cc3C)cc2)cc1.[Na+] [BBG, brilliant blue G]
- inhibition of viral replication relative to cultures infected with HIV only [1]: 54-90%
- recovery after spinal cord injury ([2]; rat model of traumatic spinal cord injury, reference 75): recovery of motor function and limited inflammation following spinal cord injury
- toxicity in vivo ([2]; rat, in vivo): without any toxicity
- cell viability (live/dead assay) [3]: None of the antagonist caused any decrease in cell viability

Compound: Nc1ncnc2c1ncn2[C@@H](C=O)O[C@@H](C=O)COP(=O)(O)OP(=O)(O)OP(=O)(O)O [oATP, oxidized ATP]
- HIVBaL replication reduced relative to HIV only [4]: 89-97%
- effect on HIVADA p24 production ([5]; 1 μM oATP, N=5): no effect
- inhibition of HIVADA p24 production relative to HIV only ([5]; 10 μM oATP, depending upon d.p.i., N=5): 50-85%
- HIVADA replication reduced (HIV p24) relative to HIV only ([5]; 100 μM oATP, depending upon the d.p.i., up to 7 d.p.i., N=10): 92-99%
- HIVYU-2 replication reduced relative to HIV only [6]: over 99%
- cell viability (live/dead assay) [3]: None of the antagonist caused any decrease in cell viability; also recorded: did not reduce cell viability
- decrease in the percentage of HIV p24 positive cells ([7]; 20 ng/ml HIVADA, N=3): 92%
- multinucleated giant cells in cultures ([7]; HIVADA, compared to HIV infected cultures): very few multinucleated giant cells were detected
- reduction in viral entry (percentage of cells with viral entry) relative to HIV only [8]: 57%
- onset of diabetes and inflammatory bowel disease [9]: can prevent the onset of diabetes and inflammatory bowel disease

Compound: FADRYWAQVS (scrambled peptide) [scrPanx1]
- Etd uptake (rate) induced by the virus [10]: did not affect
- gp120-induced Etd uptake, in presence of blockers [11]: No effects
- HIV replication (HIV-p24 release into the media) [12]: did not alter

Compound: WRQAAFVDSY (Panx1 mimetic blocking peptide) [10Panx1]
- Etd uptake (rate) induced by the virus [10]: completely blocked; also recorded: completely reduced
- Etd uptake induced by the virus, analyzed by FACS [13]: reduced Etd uptake; also recorded: reduced to control conditions (100%)
- gp120-induced Etd uptake, in presence of blockers [11]: inhibited
- HIV replication (HIV-p24 release into the media) [12]: abolished HIV replication to almost control undetectable levels; also recorded: dramatically reduced
